From patent US20030134865A1, “Modulation of histone deacetylase” (priority 2003, published 2003) come the findings set out here.

Converted amounts (≈) assume the structure as drawn. “And” between values parts separate entries of the source, which are not always exact repeats. Identical values can stand only once.

For test [1], the system named is GM-CSF release, A549 cells. In words: GM-CSF release from A549 cells (ELISA). (In general: An ELISA detects its analyte on a solid surface through an enzyme-linked reagent.)
Protocol: GM-CSF ELISA: Determination of GM-CSF expression was measured by sandwich ELISA (Pharmingen, Lugano, Switzerland) according to the manufacturer's instructions.
In another test the test system is HAT activity. In words: Direct effect on HAT activity. Type of test: biochemical. As to conditions: IBMX 500 μM, rolipram 10 μM, CGS-15943 10 μM.
Another test deals with HDAC activity. Kind of test: Direct effect on HDAC activity of nuclear proteins from untreated A549 cells. Type of test: biochemical. The settings on record: for direct effect on HDAC activity: nuclear extracts, IBMX 500 μM, rolipram 10 μM, CGS-15943 10 μM; for effect on theophylline-induced increased HDAC activity: inhibitor 1 μM. As for the experimental part:
FIG. 13. […] (a) Direct effect of the PDE4 inhibitor rolipram (10 μM) and the adenosine receptor antagonist CGS-15943 (10 μM) on HDAC activity. […] (b) Direct effect of the MEK inhibitor PD089159 (1 μM) and the p38 MAPK inhibitor SB203580 on theophylline induced HDAC activity.

Test [2] has as its system histone acetylation, A549 cells. Kind of test: Histone acetylation, [3H]-acetate incorporation in whole A549 cells. Type of test: cell-based. The source says:
Histones were isolated and separated by SDS-PAGE and [^3H]-acetate incorporated histones were counted and normalised to protein level. […] Data represents mean±SEM of 3 independent experiments. **p<0.01.

For test [3], the system named is SLPI production, A549 cells. In words: SLPI production by A549 cells (ELISA). It counts as cell-based. As for the experimental part:
A549 cells were grown to 50% confluence in Dulbecco's modified medium (DMEM) containing 10% fetal calf serum (FCS) before incubation for 48-72 hr in serura-free media.
Determination of GM-CSF expression was measured by sandwich ELISA (Pharmingen, Lugano, Switzerland) according to the manufacturer's instructions. For immunoassay of SLPI and acetylated histone, polystyrene microtitre plates were coated overnight at 4° C. with sample diluted with hydroxy carbonate (pH 9.6). Plates were blocked for 2 hr with 5 % ovalbumin in PBS. Antibodies against SLPI (R&D Systems Europe, Abingdon, UK), K5, K8, K12 and K16 acetylated histone 4 (Serotec, Oxford, UK) were diluted 1:300-1:1000 and added to each plate. After 1 hr at room temperature plates were washed sequentially with 0.1% Tween20-PBS and incubated with HRP conjugated goat anti-rabbit antibody (DAKO, Cambridge, UK) for 1 hr. Detection was performed with ABTS following Pharmingen instructions. Recombinant human SLPI (R&D Systems Europe) was used as a standard. As a standard for acetylated histone, crude extracted histone from A549 cells incubated with TSA (100 ng/ml) for 6 hr was used, and the value was calculated in units, where 1 unit is equivalent to the absorbance of 50 ng of TSA-treated hyperacetylated histone after subtraction of BSA-induced histone acetylation.

Test [4] deals with histone deacetylase (HDAC) activity, A549 cells. In words: Histone deacetylation activity in total cellular extracts of treated A549 cells.
Protocol: (B) Effect of Trichostatin A (TSA) on histone deacetylase activity and histone H4 acetylation. Cells were treated with increasing concentrations of TSA for 6 hrs before total cellular proteins were isolated and analysed for deacetylase activity and also histone acetylation by Western blotting using an anti-pan acetylated histone H4 antibody.
Effect of theophylline on histone deacetylase (HDAC) activity in A549 cells. (a) Cells were stimulated with LPS (3 ng/ml) for 24 hours in the presence or absence of theophylline (10^−5 M) or Dex (10^−6 M). Total cellular proteins were extracted and histone deacetylase activity measured. (b) Direct effect of theophylline on HDAC activity. […] Results are expressed as mean±SEM (n=3-5, *p<0.05, **p<0.01).
Another test relates to CBP, PCAF. In words: CBP and PCAF expression in A549 cells (Western blot). It counts as cell-based. As to conditions: 10^−8 and 10^−6M, 6 hrs. Background: In western blotting, separated proteins are transferred to a membrane and probed.
Test [5] deals with CBP-associated HAT activity. Kind of test: CBP-immunoprecipitated histone acetylation (IP-HAT assay). It counts as cell-based. As for the experimental part:
[…]. Cells were treated as in (A) and CBP immunoprecipitated under stringent conditions (see methods). Histone acetylation was measured as in (A) and results presented as mean±sem of at least 3 independent experiments, *p<0.05.
[…]. Cells were treated as in (A) and CBP immunoprecipitated under mild conditions (see methods). Histone acetylation was measured as in (A). […] Results presented as mean±sem of at least 3 independent experiments, *p<0.05.
Extracts were prepared using 100 μl of stringent immunoprecipitation (IP) buffer (50 mM Tris-HCl, pH 8.0, 150 mM NaCl, 1.0% triton X-100, 0.5% NP-40, 0.1% SDS, 0.5% deoxycholate, complete protease inhibitor cocktail (Boehringer-Mannheim)) or mild IP buffer (10 mM Tris-HCl, pH 8.0, 150 mM NaCl, 0.5% NP-40, complete protease inhibitor cocktail (Boehringer-Mannheim)). The lysis mixture was incubated on ice for 15 min and microfuged for 10 min at 4° C. Extracts were precleared with 20 μl of A/G agarose (a 50:50 mix; Santa Cruz, Santa Cruz, Calif.) and 2 μg of normal IgG. After microcentrifugation, 20 μl of A/G agarose conjugated with 5 μg of antibody were used to precipitate CBP, PCAF, GR or p65 overnight at 4° C. with rotation. […]
IP-HAT assays were performed using a modified method of Ogryzko (Ogryzko, V. V et al (1996) Cell 87:953-959). […] The dried filters were counted in a liquid scintillation counter.

Test [6] deals with histone H4 lysines K5, K8, K12, K16. In words: Immunocytochemical staining for acetylated histone H4 lysine residues. Type of test: cell-based. As to conditions: 6 hr. As for the experimental part:
Immunocytochemical staining for specific histone H4 acetylated lysine residues. […] Results are representative of 4 independent experiments.
Cells were washed with Hanks solution, and air-dried for 30 min at RT. Cells were then fixed in ice-cold acetone-methanol (50/50, w/w) (−20° C.) for 10 min. Slides were air dried and incubated with blocking buffer (20% normal swine serum in PBS, 0.1% saponin)(Dako) for 20 mmn followed by 1 hr incubation with primary antibody solution (PBS, 0.1% saponin, 1% BSA). Antibodies against pan-acetylated H4, H4-K5, H4-K8, H4-K12 and H4-K16 (Serotec) were used at 1:100 to 1:300 dilution. Slides were washed twice and incubated with biotinylated swine anti-rabbit IgG (Dako)(1:200) for 45 min. Slides were washed again before incubation with fluorescein isothiocyante-conjugated streptavidine (1:100) for 45 min. The slides were washed twice more before counterstaining with 20% haematoxyline, and mounting. Stained cells were observed by confocal microscopy. Confocal scanning laser microscopy images were collected with a Leica confocal microscope, equipped with a 488/514 nm dual band argon ion laser. An oil-immersion objective was used and images were collected using TCSNT software.

In test [7] the test system is p65-associated histone acetylation. In words: p65-immunoprecipitated histone acetylation (IP-HAT assay). Type of test: cell-based.
Protocol: Total cellular proteins were isolated and p65 associated proteins immunoprecipitated under stringent conditions (see methods). The associated histone acetylation activity was measured following incubation of the p65-IP extract with 10 μg free core histones and 0.25 mCi of ^3H-acetyl CoA for 45 minutes.
Histone acetylation experiments were performed as in (A) in the presence of TSA (100 ng/ml).
Extracts were prepared using 100 μl of stringent immunoprecipitation (IP) buffer (50 mM Tris-HCl, pH 8.0, 150 mM NaCl, 1.0% triton X-100, 0.5% NP-40, 0.1% SDS, 0.5% deoxycholate, complete protease inhibitor cocktail (Boehringer-Mannheim)) or mild IP buffer (10 mM Tris-HCl, pH 8.0, 150 mM NaCl, 0.5% NP-40, complete protease inhibitor cocktail (Boehringer-Mannheim)). […] After microcentrifugation, 20 μl of A/G agarose conjugated with 5 μg of antibody were used to precipitate CBP, PCAF, GR or p65 overnight at 4° C. with rotation.
Immune complexes with resin were resuspended in 150 μl of HAT buffer (50 mM Tris-HCl, pH 8.0, 10% glycerol, 1 mM dithiothreitol, 0.1 mM EDTA, complete protease inhibitor cocktail). Typically, 20 μl of free core histone solution extracted from A549 cells (final amount 10 μg) and 30 μl of immunoprecipitate were incubated. Reactions were initiated by the addition of 0.25 mCi of [^3H] acetyl-CoA (5 Ci/mmol)(Amersham) and performed for 45 min at 30° C.
The subject of test [8] is HDAC activity, BAL macrophages. Kind of test: HDAC activity in BAL macrophages. Type of test: cell-based, human. The settings on record: 24 hours, rolipram 10 μM.
Test [9] has as its system HAT activity, BAL macrophages. Kind of test: HAT activity in BAL macrophages. As to conditions: rolipram 10 μM.
Protocol: HAT activity (a) and HDAC activity (b) were measured as described in the methods. Results are expressed as mean±SEM (n=5).
Fibreoptic bronchoscopy and isolation of BAL macrophages: Subjects attended our bronchoscopy suite at 8.30 am after having fasted from midnight and were pretreated with atropine (0.6 mg iv) and midazolam (5-10 mg iv). Oxygen (31/min) was administered via nasal prongs throughout the procedure and oxygen saturation was monitored with a digital oximeter. Using local anaesthesia with lidocaine (4%) to the upper airways and larynx, a fibreoptic bronchoscope (Olympus BF10) was passed through the nasal passages into the trachea. Bronchoalveolar lavage (BAL) was performed from the right middle lobe using warmed 0.9% NaCl with 4 successive aliquots of 60 mls of 0.9% NaCl. […] Cytospins were prepared and stained with May-Grunwald stain for differential cell counts. Cell viability was assessed using trypan blue exclusion.
After incubation for 10 min at 37° C. cells were stimulated for 6 hr. […] Gels were stained with Coommasie brilliant blue and the core histones (H2A, H2B, H3 and H4) excised. The radioactivity in extracted core histones was determined by liquid scintillation counting and normalised to protein level.

Description for CBP, PCAF: Proteins were extracted and size fractionated by SDS-PAGE and CBP and PCAF detected by Western blotting. Results are representative of 3 independent experiments. […] Immunoreactive bands were detected by ECL.

For `OO` [H2O2], in [1] (A549 cells), the “GM-CSF release, IL-1β plus H2O2” value came to 2054 ± 342 pg/mL.
In the case of `CC(C)Cn1c(=O)n(C)c(=O)c2[nH]cnc21` [IBMX], the “direct effect on HAT activity” value in the test with HAT activity was “no direct effect”. In the test with HDAC activity, the “direct effect on HDAC activity” value is “no direct effect”.
Regarding `COc1cccc(-c2cc(=O)c3ccccc3o2)c1N` [PD089059], the “effect on theophylline-induced increased HDAC activity” value in the test with HDAC activity is reported as “failed to have any effect”.
Still for that read-out and setting: the entry for `C[S+]([O-])c1ccc(-c2nc(-c3ccncc3)c(-c3ccc(F)cc3)[nH]2)cc1` (centres unmarked) [SB203580] is “significantly inhibited”.
With `CC(/C=C/C(=O)NO)=C\[C@@H](C)C(=O)c1ccc(N(C)C)cc1` [TSA, trichostatin A], the “IL-1β-induced GM-CSF release” value in [1] (IL-1β 1 ng/ml plus TSA 1 ng/ml, versus 157±6 without TSA) was found to be 233 ± 12 ng/mL. Also, in test [1] (IL-1β plus H2O2), the “effect of TSA on dexamethasone (10^−6 M) suppression of GM-CSF release” value is reported as “unable to block” and the “effect of TSA on suppression of GM-CSF release by combined treatment” value is recorded as “blocked”. Besides, in [1] (IL-1β-stimulated), the “effect of TSA pre-treatment on repression of GM-CSF release by combined treatment” value is “blocked”. The “GM-CSF release in the presence of TSA” value in test [1] (IL-1β-stimulated, with or without dexamethasone 10^−6 M) amounted to 969 ± 84 pg/mL. Also, the “basal histone acetylation with TSA” value in [2] (TSA 1 ng/ml) came to 162±21 dpm/μg protein. In addition, in test [2] (TSA 1 ng/ml, versus 71±9), the “dexamethasone-induced histone acetylation with TSA” value came out at 984±50 dpm/μg protein. In addition, the “IL-1β-stimulated histone acetylation with TSA” value in test [2] (TSA 1 ng/ml, versus 137±15) amounted to 1543±143 dpm/μg protein. Further, in test [2] (TSA 100 ng/ml, versus 37±5), the “IL-1β plus dexamethasone (10^−10 M)-stimulated histone acetylation with TSA” value was found to be 435±28 dpm/μg protein. In addition, the “IL-1β-stimulated histone acetylation with TSA” value in test [2] (TSA 100 ng/ml, versus 71±9) worked out at 1543±143 dpm/μg protein. For the same molecule, in test [3] (IL-1β 1 ng/ml after pretreatment with TSA 1 ng/ml, versus 6.0±0.5), the SLPI production was found to be 8.2 ± 0.3 ng/mL. In addition, the “IC50, decrease in HDAC activity” value in [4] (A549 cells, 6 hrs) turned out to be 1.1 ng/mL (≈ 3.64 nM). The “HDAC activity in A549 cells” value in test [4] (TSA, increasing concentrations, 6 hrs, decrease from 112±21) turned out to be 11±3 dpm/ng protein.
With `C[C@@H]1C[C@H]2[C@@H]3CCC4=CC(=O)C=C[C@]4(C)[C@@]3(F)[C@@H](O)C[C@]2(C)[C@@]1(O)C(=O)CO` [dexamethasone], the “CBP or PCAF expression” value in the test with CBP, PCAF was “no effect”. For the same molecule, the “concentration giving maximum induction of histone acetylation” value in [2] (between 4-8 hr) is ≥ 10^−8 M. The same molecule yielded a basal histone acetylation in test [2] (dexamethasone 10^−10 M alone, no effect) of 23.7±4.1 dpm/μg protein. For the same molecule, the “IL-1β plus dexamethasone-stimulated histone acetylation” value in test [2] (dexamethasone 10^−10 M, no TSA) is 37±5 dpm/μg protein. This molecule also displayed a dexamethasone-induced histone acetylation in test [2] (without TSA) of 71±9 dpm/μg protein. For the same molecule, the IC50 in test [5] (CBP immunoprecipitated under stringent IP conditions, read-out: IC50, IL-1β-stimulated CBP-dependent histone acetylation) is 8 nM. Besides, the “IC50, IL-1β-induced CBP-associated histone acetylation” value in test [5] (CBP isolated under mild IP conditions) worked out at 0.04 nM. The EC50 in [3] (Homo sapiens, A549, read-out: EC50, induction of SLPI) was 9 nM. For the same molecule, in test [3] (dexamethasone alone), the “concentration of maximum SLPI induction” value was found to be 1 µM. In [6], the “acetylated histone H4 K5” value turned out to be 53±9 % positive nuclei and the “acetylated histone H4 K16” value is 36±16 % positive nuclei. The “total cell HDAC activity after IL-1β plus H2O2” value in test [4] (4 hrs, theophylline pre-treatment 10^−5 M, 10 min) was “no effect”. In test [7], the “IC50, p65-associated IL-1β-induced histone acetylation” value came out at 0.4 nM. In [7] (TSA 100 ng/ml), the “IC50, p65-associated histone acetylation in the presence of TSA” value is 90 nM.
Take `COc1ccc(C2CNC(=O)C2)cc1OC1CCCC1` (centres unmarked) [rolipram]: the “direct effect on HAT activity” value in the test on HAT activity is on record as “no direct effect”. The HDAC activity result in test [8] is listed as “no effect”. Moreover, the “direct effect on HDAC activity” value in the test with HDAC activity is on record as “no direct effect”. In addition, the HAT activity result in test [9] is given as “no effect”.
For the molecule “IL-1β: interleukin used to stimulate A549 cells (1 ng/ml)”, the “IL-1β-stimulated GM-CSF release” value in [1] (A549 cells) was 714 ± 94 pg/mL. The “increase in GM-CSF release” value in [1] (IL-1β 1 ng/ml) worked out at 30 fold. Further, in test [1] (IL-1β 1 ng/ml, 6 hr, untreated cells 30±10), the “GM-CSF within the culture supernatant” value came out at 157 ± 6 ng/mL. The “histone acetylation, IL-1β alone” value in [2] (IL-1β 1 ng/ml, whole cell incorporation) is 137±15 dpm/μg protein and 71±9 dpm/μg protein. For the same molecule, in test [2] (versus 18±4), the “histone acetylation 30 min after IL-1β-stimulation” value is listed as 41±6 dpm/μg protein. Moreover, the “increase in histone acetylation” value in [2] (whole cell) was 4-5 fold and 4 fold. The molecule further yielded an SLPI production in [3] (IL-1β 1 ng/ml, versus 1.2±0.3 control) of 6.0 ± 0.5 ng/mL. Also, in test [6], the “acetylated histone H4 K8” value came to 42±15 % positive nuclei and the “acetylated histone H4 K12” value was found to be 37±4 % positive nuclei. The “increase of p65-immunoprecipitated histone acetylation” value in [7] (IL-1β stimulation) is listed as 9-10 fold.
Consider lipopolysaccharide [LPS], for which the “reduction of total cell HDAC activity” value in test [4] (LPS, 6 hrs) stood at 30%.

By IC50 is commonly meant the concentration that gives 50% inhibition. The term EC50 denotes the concentration at which the effect is half-maximal.
